We go through ten molecules from ChEMBL document CHEMBL2010719, “Tyrosine modified analogues of the α4β7 integrin inhibitor biotin-R₈ERY prepared via Click Chemistry: synthesis and biological evaluation” (Bioorg Med Chem, 2012).

What all share (assay type): cell-based
Assay [1] has as its target T1, Integrin alpha-4/beta-7 (Mus musculus) (UniProt Q00651+P26011). Nature of the assay: Inhibition of integrin alpha4 beta7 receptor in mouse TK1 cells assessed as inhibition of Mn2+-activated cell adhesion to mouse MAdCAM-1-Fc at 50 uM after 1 hr by methylene blue staining analysis relative to biotin-r9YDRREY.
The target in assay [2] is T1, Integrin alpha-4/beta-7 (Mus musculus). The experiment in a line: Inhibition of integrin alpha4 beta7 receptor in mouse TK1 cells assessed as inhibition of Mn2+-activated cell adhesion to mouse MAdCAM-1-Fc at 100 uM after 1 hr using methylene blue staining relative to biotin-r9YDRREY.
For another assay, the target named is T2, Integrin alpha-4/beta-7 (Mus musculus, UniProt P26011+Q00651).
T2 sequence (Q00651 whole entry): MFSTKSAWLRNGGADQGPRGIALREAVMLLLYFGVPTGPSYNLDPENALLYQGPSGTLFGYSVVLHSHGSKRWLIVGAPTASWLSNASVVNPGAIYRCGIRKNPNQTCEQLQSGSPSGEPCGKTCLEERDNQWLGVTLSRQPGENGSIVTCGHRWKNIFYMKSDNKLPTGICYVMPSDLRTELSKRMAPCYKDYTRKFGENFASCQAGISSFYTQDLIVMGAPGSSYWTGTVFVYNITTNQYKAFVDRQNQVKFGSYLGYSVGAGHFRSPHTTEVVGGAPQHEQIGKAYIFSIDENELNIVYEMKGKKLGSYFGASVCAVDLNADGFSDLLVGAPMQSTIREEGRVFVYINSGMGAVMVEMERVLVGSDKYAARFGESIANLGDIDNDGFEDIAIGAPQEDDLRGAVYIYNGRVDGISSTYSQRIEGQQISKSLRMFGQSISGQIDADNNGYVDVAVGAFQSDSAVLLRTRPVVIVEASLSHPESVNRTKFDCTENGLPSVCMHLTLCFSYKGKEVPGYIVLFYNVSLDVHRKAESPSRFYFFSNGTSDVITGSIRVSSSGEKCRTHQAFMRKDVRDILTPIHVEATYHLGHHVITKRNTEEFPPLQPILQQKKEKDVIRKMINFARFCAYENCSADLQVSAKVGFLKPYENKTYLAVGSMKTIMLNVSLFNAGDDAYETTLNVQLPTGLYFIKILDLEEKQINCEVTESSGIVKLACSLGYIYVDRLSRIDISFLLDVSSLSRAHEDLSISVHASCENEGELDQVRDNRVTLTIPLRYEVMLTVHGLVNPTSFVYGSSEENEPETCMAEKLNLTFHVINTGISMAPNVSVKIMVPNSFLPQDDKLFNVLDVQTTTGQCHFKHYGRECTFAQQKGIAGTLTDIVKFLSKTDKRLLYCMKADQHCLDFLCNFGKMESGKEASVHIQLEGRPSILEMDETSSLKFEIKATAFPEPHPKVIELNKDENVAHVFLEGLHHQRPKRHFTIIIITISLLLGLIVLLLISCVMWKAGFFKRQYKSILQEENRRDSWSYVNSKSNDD
T2 sequence (P26011 whole entry): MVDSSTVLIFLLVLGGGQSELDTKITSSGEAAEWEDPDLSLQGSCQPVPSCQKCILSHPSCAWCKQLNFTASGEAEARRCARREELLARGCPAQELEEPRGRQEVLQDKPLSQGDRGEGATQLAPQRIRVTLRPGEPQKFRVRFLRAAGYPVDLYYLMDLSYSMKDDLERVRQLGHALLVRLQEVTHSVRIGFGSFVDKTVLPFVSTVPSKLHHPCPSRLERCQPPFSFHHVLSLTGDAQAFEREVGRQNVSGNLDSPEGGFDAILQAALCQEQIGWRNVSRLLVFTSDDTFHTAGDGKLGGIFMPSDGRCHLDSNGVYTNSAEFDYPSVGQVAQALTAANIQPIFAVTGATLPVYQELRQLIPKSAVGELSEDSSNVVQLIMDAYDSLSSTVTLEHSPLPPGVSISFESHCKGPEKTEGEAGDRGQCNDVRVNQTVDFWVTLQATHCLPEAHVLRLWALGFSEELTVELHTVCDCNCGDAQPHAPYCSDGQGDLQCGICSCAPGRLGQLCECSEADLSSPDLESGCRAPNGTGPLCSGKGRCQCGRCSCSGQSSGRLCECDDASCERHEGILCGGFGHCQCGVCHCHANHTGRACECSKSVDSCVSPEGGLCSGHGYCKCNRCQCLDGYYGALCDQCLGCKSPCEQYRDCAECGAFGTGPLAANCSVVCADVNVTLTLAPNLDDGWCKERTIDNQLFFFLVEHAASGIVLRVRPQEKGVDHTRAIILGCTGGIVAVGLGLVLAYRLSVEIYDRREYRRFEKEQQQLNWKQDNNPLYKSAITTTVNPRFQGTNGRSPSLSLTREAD
The experiment in a line: Inhibition of integrin alpha4 beta7 receptor in mouse TK1 cells assessed as inhibition of Mn2+-activated cell adhesion to mouse MAdCAM-1-Fc after 1 hr using methylene blue staining.

Broadly, the inhibition is the drop in the measured response relative to a control, in per cent. By IC50 is commonly meant the midpoint of a concentration-inhibition curve.

The structures appear in SMILES notation. Residues, ends and D or L forms follow the SMILES beside them. *: point of attachment. X6 = CC(=O)OC[C@@H]1O[C@H](n2cc(C*)nn2)[C@@H](OC(C)=O)[C@H](OC(C)=O)[C@@H]1OC(C)=O; X3 = CC(=O)N[C@H]1[C@H](OC(C)=O)[C@H](OC(C)=O)[C@H](COC(C)=O)O[C@@H]1n1cc(C*)nn1; X1 = CC(=O)OC[C@@H]1OC(OC(C)=O)[C@@H](n2cc(C*)nn2)[C@H](OC(C)=O)[C@@H]1OC(C)=O; X9 = CC(=O)N[C@@H]1[C@H](OCCCn2cc(C*)nn2)O[C@@H](CO)[C@@H](O)[C@H]1O; X4 = CC(=O)N[C@H]1[C@H](O)[C@H](O)[C@H](CO)O[C@@H]1n1cc(C*)nn1; X5 = O=C(N[C@@H](Cn1cc(C*)nn1)C(=O)O)OCC1c2ccccc2-c2ccccc21; X2 = OC[C@@H]1O[C@H](n2cc(C*)nn2)[C@@H](O)[C@H](O)[C@@H]1O; Biotin = O=C1N[C@H]2[C@H](CS[C@H]2CCCCC(=O)*)N1; X8 = O=P(O)(O)CCn1cc(C*)nn1; X7 = O=C(O)Cn1cc(C*)nn1; Propargyl = C#CC* A value given as a limit tells only on which side of the number the result lay.

`CC(=O)N[C@H]1[C@H](OC(C)=O)[C@H](OC(C)=O)[C@H](COC(C)=O)O[C@@H]1n1cc(COc2ccc(C[C@H](NC(=O)[C@H](CCCNC(=N)N)NC(=O)[C@H](CCC(=O)O)NC(=O)[C@H](CCCNC(=N)N)NC(=O)[C@H](CCCNC(=N)N)NC(=O)[C@H](CCCNC(=N)N)NC(=O)[C@H](CCCNC(=N)N)NC(=O)[C@H](CCCNC(=N)N)NC(=O)[C@H](CCCNC(=N)N)NC(=O)[C@H](CCCNC(=N)N)NC(=O)[C@H](CCCNC(=N)N)NC(=O)CCCC[C@@H]3SC[C@@H]4NC(=O)N[C@@H]43)C(=O)O)cc2)nn1` (Biotin-RRRRRRRRERY(X3)-OH): the inhibition turned out to be 40% in assay [1] and 46.5% in assay [2].

Turning to `N=C(N)NCCC[C@H](NC(=O)CCCC[C@@H]1SC[C@@H]2NC(=O)N[C@@H]21)C(=O)N[C@@H](CCCNC(=N)N)C(=O)N[C@@H](CCCNC(=N)N)C(=O)N[C@@H](CCCNC(=N)N)C(=O)N[C@@H](CCCNC(=N)N)C(=O)N[C@@H](CCCNC(=N)N)C(=O)N[C@@H](CCCNC(=N)N)C(=O)N[C@@H](CCCNC(=N)N)C(=O)N[C@@H](CCC(=O)O)C(=O)N[C@@H](CCCNC(=N)N)C(=O)N[C@@H](Cc1ccc(OCc2cn(CC(=O)O)nn2)cc1)C(=O)O` (Biotin-RRRRRRRRERY(X7)-OH), the inhibition in assay [1] came to 56.1%; in assay [2] it was 34.9%.

As for `N=C(N)NCCC[C@H](NC(=O)CCCC[C@@H]1SC[C@@H]2NC(=O)N[C@@H]21)C(=O)N[C@@H](CCCNC(=N)N)C(=O)N[C@@H](CCCNC(=N)N)C(=O)N[C@@H](CCCNC(=N)N)C(=O)N[C@@H](CCCNC(=N)N)C(=O)N[C@@H](CCCNC(=N)N)C(=O)N[C@@H](CCCNC(=N)N)C(=O)N[C@@H](CCCNC(=N)N)C(=O)N[C@@H](CCC(=O)O)C(=O)N[C@@H](CCCNC(=N)N)C(=O)N[C@@H](Cc1ccc(OCc2cn(C[C@H](NC(=O)OCC3c4ccccc4-c4ccccc43)C(=O)O)nn2)cc1)C(=O)O` (Biotin-RRRRRRRRERY(X5)-OH), the inhibition in assay [1] came to 114%; in assay [2], 111%. The IC50 on Integrin alpha-4/beta-7 is under 10 µM.

Turning to `N=C(N)NCCC[C@H](NC(=O)CCCC[C@@H]1SC[C@@H]2NC(=O)N[C@@H]21)C(=O)N[C@@H](CCCNC(=N)N)C(=O)N[C@@H](CCCNC(=N)N)C(=O)N[C@@H](CCCNC(=N)N)C(=O)N[C@@H](CCCNC(=N)N)C(=O)N[C@@H](CCCNC(=N)N)C(=O)N[C@@H](CCCNC(=N)N)C(=O)N[C@@H](CCCNC(=N)N)C(=O)N[C@@H](CCC(=O)O)C(=O)N[C@@H](CCCNC(=N)N)C(=O)N[C@@H](Cc1ccc(OCc2cn(CCP(=O)(O)O)nn2)cc1)C(=O)O` (Biotin-RRRRRRRRERY(X8)-OH), the inhibition was 60.3% in assay [1] and 65.4% in assay [2].

Turning to `N=C(N)NCCC[C@H](NC(=O)CCCC[C@@H]1SC[C@@H]2NC(=O)N[C@@H]21)C(=O)N[C@@H](CCCNC(=N)N)C(=O)N[C@@H](CCCNC(=N)N)C(=O)N[C@@H](CCCNC(=N)N)C(=O)N[C@@H](CCCNC(=N)N)C(=O)N[C@@H](CCCNC(=N)N)C(=O)N[C@@H](CCCNC(=N)N)C(=O)N[C@@H](CCCNC(=N)N)C(=O)N[C@@H](CCC(=O)O)C(=O)N[C@@H](CCCNC(=N)N)C(=O)N[C@@H](Cc1ccc(OCc2cn([C@H]3O[C@@H](CO)[C@@H](O)[C@@H](O)[C@@H]3O)nn2)cc1)C(=O)O` (Biotin-RRRRRRRRERY(X2)-OH), the inhibition in assay [1] came to 60.2%; in assay [2], 62.7%.

As to `CC(=O)OC[C@@H]1OC(OC(C)=O)[C@@H](n2cc(COc3ccc(C[C@H](NC(=O)[C@H](CCCNC(=N)N)NC(=O)[C@H](CCC(=O)O)NC(=O)[C@H](CCCNC(=N)N)NC(=O)[C@H](CCCNC(=N)N)NC(=O)[C@H](CCCNC(=N)N)NC(=O)[C@H](CCCNC(=N)N)NC(=O)[C@H](CCCNC(=N)N)NC(=O)[C@H](CCCNC(=N)N)NC(=O)[C@H](CCCNC(=N)N)NC(=O)[C@H](CCCNC(=N)N)NC(=O)CCCC[C@@H]4SC[C@@H]5NC(=O)N[C@@H]54)C(=O)O)cc3)nn2)[C@H](OC(C)=O)[C@@H]1OC(C)=O` (some centres not stated) (Biotin-RRRRRRRRERY(X1)-OH), the inhibition in assay [1] came out at 104%; in assay [2], 105%. Also, the IC50 at Integrin alpha-4/beta-7 amounted to 50 µM.

For the molecule `CC(=O)N[C@@H]1[C@H](OCCCn2cc(COc3ccc(C[C@H](NC(=O)[C@H](CCCNC(=N)N)NC(=O)[C@H](CCC(=O)O)NC(=O)[C@H](CCCNC(=N)N)NC(=O)[C@H](CCCNC(=N)N)NC(=O)[C@H](CCCNC(=N)N)NC(=O)[C@H](CCCNC(=N)N)NC(=O)[C@H](CCCNC(=N)N)NC(=O)[C@H](CCCNC(=N)N)NC(=O)[C@H](CCCNC(=N)N)NC(=O)[C@H](CCCNC(=N)N)NC(=O)CCCC[C@@H]4SC[C@@H]5NC(=O)N[C@@H]54)C(=O)O)cc3)nn2)O[C@@H](CO)[C@@H](O)[C@H]1O` (Biotin-RRRRRRRRERY(X9)-OH), the results for the inhibition in assay [1] and in assay [2] were 41.5% and 42.4%, respectively.

`CC(=O)OC[C@@H]1O[C@H](n2cc(COc3ccc(C[C@H](NC(=O)[C@H](CCCNC(=N)N)NC(=O)[C@H](CCC(=O)O)NC(=O)[C@H](CCCNC(=N)N)NC(=O)[C@H](CCCNC(=N)N)NC(=O)[C@H](CCCNC(=N)N)NC(=O)[C@H](CCCNC(=N)N)NC(=O)[C@H](CCCNC(=N)N)NC(=O)[C@H](CCCNC(=N)N)NC(=O)[C@H](CCCNC(=N)N)NC(=O)[C@H](CCCNC(=N)N)NC(=O)CCCC[C@@H]4SC[C@@H]5NC(=O)N[C@@H]54)C(=O)O)cc3)nn2)[C@@H](OC(C)=O)[C@H](OC(C)=O)[C@@H]1OC(C)=O` (Biotin-RRRRRRRRERY(X6)-OH): the results for the inhibition in assay [1] and in assay [2] were 47.4% and 52.5%, respectively.

Consider `C#CCOc1ccc(C[C@H](NC(=O)[C@H](CCCNC(=N)N)NC(=O)[C@H](CCC(=O)O)NC(=O)[C@H](CCCNC(=N)N)NC(=O)[C@H](CCCNC(=N)N)NC(=O)[C@H](CCCNC(=N)N)NC(=O)[C@H](CCCNC(=N)N)NC(=O)[C@H](CCCNC(=N)N)NC(=O)[C@H](CCCNC(=N)N)NC(=O)[C@H](CCCNC(=N)N)NC(=O)[C@H](CCCNC(=N)N)NC(=O)CCCC[C@@H]2SC[C@@H]3NC(=O)N[C@@H]32)C(=O)O)cc1` (Biotin-RRRRRRRRERY(Propargyl)-OH), for which the inhibition in assay [1] and in assay [2] was 39.8% in each case.

`CC(=O)N[C@H]1[C@H](O)[C@H](O)[C@H](CO)O[C@@H]1n1cc(COc2ccc(C[C@H](NC(=O)[C@H](CCCNC(=N)N)NC(=O)[C@H](CCC(=O)O)NC(=O)[C@H](CCCNC(=N)N)NC(=O)[C@H](CCCNC(=N)N)NC(=O)[C@H](CCCNC(=N)N)NC(=O)[C@H](CCCNC(=N)N)NC(=O)[C@H](CCCNC(=N)N)NC(=O)[C@H](CCCNC(=N)N)NC(=O)[C@H](CCCNC(=N)N)NC(=O)[C@H](CCCNC(=N)N)NC(=O)CCCC[C@@H]3SC[C@@H]4NC(=O)N[C@@H]43)C(=O)O)cc2)nn1` (Biotin-RRRRRRRRERY(X4)-OH): the inhibition in assay [1] was determined as 28%; in assay [2] it was 39.6%.
